The text below walks through data of patent US20050222106A1, “Drospirenone-containing preparations for transdermal use” (priority 2004, published 2005).

Entries after “also recorded” stand apart in the source; their conditions may differ.

The nature of data set [1]: Permeation through human skin from the preparation of Example 1. The format is in vitro ADME. The method, then: (§1) 200 mg of the preparation made according to Example 1 were applied to bare mouse skin, which were fixed in modified Franz permeation cells as a permeation membrane. The results for the average permeation values for testosterone and drospirenone in μg/cm^2 versus time after application are shown in FIG. 1. The average values are the average of seven experimental runs. The mouse skin used was hairless mouse skin, HsdCpb NMRI-nu/nu, Harlan Bioservice, Walsrode.
(§2) Acceptable Medium for the Franz Cells:
(§3) At 3, 6, 9, 12, 15 and 18 hours samples of 100 μl were removed by an automatic sampling system from the acceptor medium of the Franz cells and injected into an HPLC automatic analyzer.
The preparation from example 1 was tested on human skin (female belly skin from cosmetic reduction, dermatomized at a layer thickness of about 450 μm).
The skin permeation values or mass transport amount for drospirenone and testosterone as a function of time after application of the preparation to the skin are shown in FIG. 2. The open squares indicate the measured permeation values for testosterone in […]. The open circles indicate the permeation values for drospirenone. The vertical lines on the circles and squares are error bars indicating the experimental error.

Data set [2] is described as follows: Permeation of bare mouse skin in modified Franz permeation cells. As to conditions: aqueous ethanolic vehicle (preparation of Example 1, 200 mg), FIG. 1, average of seven runs. The data set is classed as in vitro ADME. How it is done: as §1, §2, §3
The filled-in circles indicate the measured permeation values for testosterone in FIG. 1. The filled-in squares indicate the permeation values for drospirenone. The vertical lines on the circles and squares are error bars indicating the experimental error.

On to `C[C@]12CC[C@H]3[C@@H](CCC4=CC(=O)CC[C@@]43C)[C@@H]1CC[C@@H]2O` [Testosterone], for which the “Mean cumulative Transport” value in data set [1] (human skin, preparation of Example 1, time 0 h) came out at 0.00 μg/cm^2; in data set [1] (human skin, preparation of Example 1, time 3 h) it was 3.62 μg/cm^2; in data set [1] (human skin, preparation of Example 1, time 7 h), 7.72 μg/cm^2; in data set [1] (human skin, preparation of Example 1, time 10 h), 10.70 μg/cm^2; in data set [1] (human skin, preparation of Example 1, time 24 h), 26.57 μg/cm^2; in data set [1] (human skin, preparation of Example 1, time 30 h), 33.31 μg/cm^2. Moreover, the “Mean cumulative Transport” value in data set [1] (human skin, preparation of Example 1, time 48 h) came to 44.35 μg/cm^2.

For `C[C@]12CCC(=O)C=C1[C@@H]1C[C@@H]1[C@H]1[C@@H]3[C@@H]4C[C@@H]4[C@@]4(CCC(=O)O4)[C@@]3(C)CC[C@@H]12` [Drospirenone, drospirenone], in data set [1] (female, human), the “Permeation values relative to those of testosterone” value was “about 40%”. Moreover, the “Mean cumulative Transport” value is listed as 0.00 μg/cm^2 in data set [1] (female, human, 0 h); 0.87 μg/cm^2 in data set [1] (female, human, 3 h); 2.04 μg/cm^2 in data set [1] (female, human, 7 h); 2.86 μg/cm^2 in data set [1] (female, human, 10 h); 8.67 μg/cm^2 in data set [1] (female, human, 24 h); 12.13 μg/cm^2 in data set [1] (female, human, 30 h). The “Mean cumulative Transport” value in data set [1] (female, human, 48 h) is 19.23 μg/cm^2. For the same compound, the “Permeation of mouse skin in vitro compared with testosterone” value in data set [2] is given as “approximately the same good extent as testosterone; also recorded: permeation values for testosterone are larger than those for drospirenone”.
